# From PMC2358886, “Evolution of pharmacologic specificity in the pregnane X receptor” (BMC Evolutionary Biology, 2008)
# Read-outs that look alike come from different tables or passages of the source.
# Legend:
# human PXR [1] = target: T1, human PXR (Homo sapiens, UniProt O75469); assay: PXR activation luciferase reporter assay, human PXR in HepG2-NTCP cells
# T1 sequence (O75469 1-434): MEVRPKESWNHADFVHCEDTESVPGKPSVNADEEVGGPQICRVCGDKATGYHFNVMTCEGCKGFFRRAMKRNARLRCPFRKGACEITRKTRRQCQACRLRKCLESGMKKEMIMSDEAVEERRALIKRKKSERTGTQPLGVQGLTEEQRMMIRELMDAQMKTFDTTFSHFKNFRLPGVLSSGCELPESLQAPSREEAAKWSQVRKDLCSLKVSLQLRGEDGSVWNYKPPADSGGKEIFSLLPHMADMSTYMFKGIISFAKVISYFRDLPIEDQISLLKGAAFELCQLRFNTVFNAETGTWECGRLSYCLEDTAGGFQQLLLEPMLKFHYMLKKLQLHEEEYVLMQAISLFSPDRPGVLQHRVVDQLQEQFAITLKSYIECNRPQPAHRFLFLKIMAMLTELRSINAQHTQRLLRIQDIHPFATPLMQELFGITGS
# human PXR [2] = target: T1, human PXR
# zebrafish PXR = target: T2, zebrafish PXR (Danio rerio, UniProt A5WYG8)
# T2 sequence (A5WYG8 144-430): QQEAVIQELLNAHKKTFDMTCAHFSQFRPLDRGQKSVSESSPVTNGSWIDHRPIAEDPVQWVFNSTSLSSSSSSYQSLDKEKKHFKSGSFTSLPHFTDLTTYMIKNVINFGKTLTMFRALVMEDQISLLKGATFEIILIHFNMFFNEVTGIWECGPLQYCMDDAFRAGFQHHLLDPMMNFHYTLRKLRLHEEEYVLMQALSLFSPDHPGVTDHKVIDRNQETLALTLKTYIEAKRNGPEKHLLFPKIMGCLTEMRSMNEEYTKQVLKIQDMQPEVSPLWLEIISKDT
# [3] = -log(EC50), EC50 in molar units, activation of human PXR
# [4] = -log(EC50), EC50 in molar units, activation of zebrafish PXR
# [5] = hPXR Activity, -log(EC50), EC50 in molar units, activation of human PXR
# [6] = relative to 20 μM 5α-androstan-3α-ol, assigned an efficacy of 1.0
SMILES,Toxicity (HepG2 cells),zfPXR Activity (zebrafish PXR; [4]),hPXR Activity (human PXR [2]),also measured
"C[C@]12CC[C@H](OS(=O)(=O)O)CC1=CC[C@@H]1[C@@H]2CC[C@]2(C)C(=O)CC[C@@H]12 [AN12, 5-Androsten-3β-sulfate-17-one]",None,None,,hPXR Activity (human PXR [1]; [3]): 4.32; hPXR Efficacy (human PXR [2]): 0.22
"C[C@]12CC[C@H]3[C@@H](CCC4=CC(=O)CC[C@@]43C)[C@@H]1CC[C@H]2OS(=O)(=O)O [AN17, 4-Androsten-17α-sulfate-3-one]",None,None,,hPXR Activity (human PXR [1]; [3]): 5.47; hPXR Efficacy (human PXR [2]): 0.67
"C[C@H](CCC(=O)NCCS(=O)(=O)O)[C@H]1CC[C@H]2[C@@H]3CC[C@@H]4C[C@H](OS(=O)(=O)O)CC[C@]4(C)[C@H]3CC[C@]12C [BI44, 5β-Cholanic acid-3α-sulfate N-(2-sulfoethyl)-amide]",None,None,,"EC50 (human PXR [1]; [5]): 83.2 µM; hPXR Efficacy (human PXR [2]; human, 1 day): 0.55"
"C[C@]12CC[C@@H]3c4ccc(OS(=O)(=O)O)cc4CC[C@H]3[C@@H]1CC[C@@H]2O [ES10, 1,3,5(10)-Estratrien-17β-ol-3-sulfate]",200 µM,None,,hPXR Activity (human PXR [1]; [3]): 6.05; hPXR Efficacy (human PXR [2]): 0.6
"Nc1cccc(C(=O)O)c1 [MI2, 3-Aminobenzoic acid]",None,None,None,
"CCOP(=S)(OCC)Oc1nc(Cl)c(Cl)cc1Cl [MI10, Chlorpyrifos]",None,,,EC50 (human PXR [1]; [5]): 25.7 µM; hPXR Efficacy (human PXR [2]; human): 2.05
"COc1c(C)c2c(c(O)c1C/C=C(\C)CCC(=O)O)C(=O)OC2 [MI21, Mycophenolic acid]",None,None,None,
"O=C1NC(=O)C(c2ccccc2)(c2ccccc2)N1 [MI26, Phenytoin]",,,,"hPXR Efficacy (human PXR [2]; human): 0.52; Toxicity (HepG2 cells; human, 24 hr): 200 µM; zfPXR Activity (zebrafish PXR): None"
"CC(C)CCC[C@@H](C)[C@H]1CC[C@H]2C3=CC=C4C[C@@H](O)CC[C@]4(C)[C@H]3CC[C@]12C [MI28, Provitamin D3]",10 µM,None,None,
"CC(C)[C@@H](C)/C=C/[C@@H](C)[C@H]1CC[C@H]2C3=CC=C4C[C@@H](O)CC[C@]4(C)[C@H]3CC[C@]12C [MI29, Provitamin D2]",20 µM,None,None,
"CC1=C(/C=C/C(C)=C/C=C/C(C)=C/CO)C(C)(C)CCC1 [MI31, Retinol]",,,,"hPXR Efficacy (human PXR [2]; human): 0.20; Toxicity (HepG2 cells; human, 24 hr): 50 µM; zfPXR Activity (zebrafish PXR): None"
"Cc1cc(O)c(C)c2c1O[C@](C)(CCC[C@H](C)CCC[C@H](C)CCCC(C)C)CC2 [MI38, β-Tocopherol]",100 µM,None,,hPXR Activity (human PXR [1]; [3]): 4.85; hPXR Efficacy (human PXR [2]): 0.33
"Cc1cc(O)cc2c1O[C@](C)(CCC[C@H](C)CCC[C@H](C)CCCC(C)C)CC2 [MI39, δ-Tocopherol]",100 µM,None,,hPXR Activity (human PXR [1]; [3]): 5.14; hPXR Efficacy (human PXR [2]): 0.64
"C=C1/C(=C\C=C2/CCC[C@]3(C)[C@@H]([C@H](C)/C=C/[C@H](C)C(C)C)CC[C@@H]23)C[C@@H](O)C[C@@H]1O [MI42, 1α-Hydroxyvitamin D2]",,None,None,"Toxicity (HepG2 cells; human, 24 hr): 50 µM"
"CC1=CC(=O)c2ccccc2C1=O [MI46, Vitamin K3]",,,,"hPXR Efficacy (human PXR [2]; human): ~0.15; Toxicity (HepG2 cells; human, 24 hr): 100 µM; zfPXR Activity (zebrafish PXR): None"
"CC(O)C1CCC2C3CCC4CC(O)CCC4(C)C3CCC12C (stereo not drawn) [PR1, 5β-Pregnan-3α,20α-diol]",100 µM,None,,hPXR Activity (human PXR [1]; [3]): 5.29; hPXR Efficacy (human PXR [2]): 0.34
"C[C@]12CC[C@H]3[C@@H](CCC4=CC(=O)CC[C@@]43C)[C@@H]1CC[C@@H]2C(=O)CO [PR9, 4-Pregnen-21-ol-3,20-dione]",,,,"EC50 (human PXR [1]; Human PXR EC50 (concentration class, Figure 2A)): < 10 µM; EC50 (human PXR [1]; hPXR Activity): 2.45 µM; hPXR Efficacy (human PXR [2]; human): 0.3; Toxicity (HepG2 cells; human): 200 µM; Zebrafish PXR EC50 (concentration class, Figure 2B) (zebrafish PXR): Inactive; zfPXR Activity (zebrafish PXR): None"
"CC(=O)[C@@]1(O)CC[C@H]2[C@@H]3CC=C4C[C@@H](O)CC[C@]4(C)[C@H]3CC[C@@]21C [PR11, 5-Pregnen-3β,17-diol-20-one]",None,None,4.47,EC50 (human PXR [2]): 11 to 50 µM
"CC(=O)[C@H]1CC[C@H]2[C@@H]3CC[C@H]4C[C@H](O)CC[C@]4(C)[C@H]3CC[C@]12C [PR14, 5α-Pregnan-3α-ol-20-one]",None,,,EC50 (human PXR [1]; [5]): 4.17 µM; hPXR Efficacy (human PXR [2]; human): 0.46
"C[C@H](O)[C@H]1CC[C@H]2[C@@H]3CC[C@H]4C[C@H](O)CC[C@]4(C)[C@H]3CC[C@]12C [PR15, 5α-Pregnan-3α,20α-diol]",None,4.58,,hPXR Activity (human PXR [1]; [3]): 4.28; hPXR Efficacy (human PXR [2]): 0.16; zfPXR Efficacy (zebrafish PXR): 0.29
"C[C@]12CC[C@@H](O)C[C@H]1CC[C@@H]1[C@@H]2[C@@H](O)C[C@@]2(C)[C@H]1CC[C@]2(O)[C@@H](O)CO [PR17, 5β-Pregnan-3α,11β,17,20α-21-pentol]",200 µM,3.95,4.33,zfPXR Efficacy (zebrafish PXR; [6]): 0.98
"C[C@]12CC[C@@H](O)C[C@H]1CC[C@@H]1[C@@H]2C(=O)C[C@@]2(C)[C@H]1CC[C@]2(O)[C@@H](O)CO [PR18, 5β-Pregnan-3α,17,20α-21-tetrol-11-one]",200 µM,4.34,4.35,zfPXR Efficacy (zebrafish PXR; [6]): 0.25
"C[C@]12CC[C@@H](O)C[C@H]1CC[C@@H]1[C@@H]2C(=O)C[C@@]2(C)[C@H]1CC[C@]2(O)C(=O)CO [PR19, 5β-Pregnan-3α,17,21-triol-11,20-dione]",None,4.43,4.28,zfPXR Efficacy (zebrafish PXR; [6]): 0.33
"C[C@@H](O)[C@@]1(O)CC[C@H]2[C@@H]3CCC4=CC(=O)CC[C@]4(C)[C@H]3CC[C@@]21C [PR21, 4-Pregnen-17α,20β-diol-3,20-dione]",200 µM,None,None,
"C[C@@H](O)[C@H]1CC[C@H]2[C@@H]3CC[C@@H]4C[C@H](O)CC[C@]4(C)[C@H]3CC[C@]12C [PR23, 5β-Pregnan-3α,20β-diol]",None,5.95,5.42,zfPXR Efficacy (zebrafish PXR; [6]): 0.25
"C[C@]12CC[C@@H](O)C[C@H]1CC[C@@H]1[C@@H]2[C@@H](O)C[C@@]2(C)[C@H]1CC[C@]2(O)C(=O)CO [PR24, 5β-Pregnan-3α,11β,17,21-tetrol-20-one]",None,3.94,4.33,zfPXR Efficacy (zebrafish PXR; [6]): 0.11
"CC(=O)[C@H]1CC[C@H]2[C@@H]3CC=C4C[C@@H](OS(=O)(=O)O)CC[C@]4(C)[C@H]3CC[C@]12C [PR26, 5-Pregnen-20-one-3β-sulfate]",None,4.95,None,zfPXR Efficacy (zebrafish PXR; [6]): 0.23
